Assay results taken from patent publication US20110178053A1, “AZACARBOLINE DERIVATIVES, PREPARATION METHOD THEREOF AND THERAPEUTIC USE OF SAME” (SANOFI-AVENTIS, priority 2008, published 2011).

Assays:
Pim-1 = target: T1, Pim-1 (Homo sapiens, UniProt P11309); assay: TR-FRET assay, Pim-1 kinase (phosphorylation of Bad Ser112); type: biochemical; details: TR-FRET; ATP 40 μM; read-out: IC50 Pim1
T1 construct: His6-labelled recombinant full-length human Pim-1, Pim-2 or Pim-3 protein; His6; made in house
Procedure, shortened: (§1)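 For each of Pim-1, Pim-2 and Pim-3 (His6-tagged full-length human), compounds were titrated over 10 concentrations in duplicate, typically from 30 μM, with ATP at 40 μM, equal to apparent KM. Bad Ser112 phosphorylation was read as the 665/615 nm TR-FRET ratio and IC50 fitted by 4-parameter logistic model.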

Pim-2 = target: T2, Pim-2 (Homo sapiens, UniProt Q9P1W9); assay: TR-FRET assay, Pim-2 kinase (phosphorylation of Bad Ser112); type: biochemical; details: TR-FRET; ATP 40 μM; read-out: IC50 Pim2
T2 construct: His6-labelled recombinant full-length human Pim-1, Pim-2 or Pim-3 protein; His6; made in house
Procedure, shortened: as §1

Pim-3 = target: T3, Pim-3 (Homo sapiens, UniProt Q86V86); assay: TR-FRET assay, Pim-3 kinase (phosphorylation of Bad Ser112); type: biochemical; details: TR-FRET; ATP 40 μM; read-out: IC50 Pim3
T3 construct: His6-labelled recombinant full-length human Pim-1, Pim-2 or Pim-3 protein; His6; made in house
Procedure, shortened: as §1

PLK1 = PLK1 (Homo sapiens, UniProt P53350); assay: PLK1 biochemical inhibition
Sequence of PLK1 (P53350 whole entry, species assumed): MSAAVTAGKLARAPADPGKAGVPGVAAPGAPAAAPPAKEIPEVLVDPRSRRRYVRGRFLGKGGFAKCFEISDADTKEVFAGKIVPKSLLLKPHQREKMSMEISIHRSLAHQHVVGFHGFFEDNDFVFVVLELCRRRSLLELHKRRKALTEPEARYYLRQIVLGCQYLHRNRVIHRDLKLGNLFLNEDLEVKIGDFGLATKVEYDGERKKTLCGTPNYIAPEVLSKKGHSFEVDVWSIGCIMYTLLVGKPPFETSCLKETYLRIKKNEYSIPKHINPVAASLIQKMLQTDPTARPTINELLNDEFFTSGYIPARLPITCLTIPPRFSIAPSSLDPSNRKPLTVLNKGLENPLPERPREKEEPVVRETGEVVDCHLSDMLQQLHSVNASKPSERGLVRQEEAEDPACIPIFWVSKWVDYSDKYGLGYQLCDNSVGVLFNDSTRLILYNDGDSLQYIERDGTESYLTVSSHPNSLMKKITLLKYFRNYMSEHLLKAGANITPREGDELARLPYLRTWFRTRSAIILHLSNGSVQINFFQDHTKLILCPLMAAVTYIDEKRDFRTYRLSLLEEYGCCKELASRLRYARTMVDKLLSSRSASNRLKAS

T2 sequence (Q9P1W9 whole entry): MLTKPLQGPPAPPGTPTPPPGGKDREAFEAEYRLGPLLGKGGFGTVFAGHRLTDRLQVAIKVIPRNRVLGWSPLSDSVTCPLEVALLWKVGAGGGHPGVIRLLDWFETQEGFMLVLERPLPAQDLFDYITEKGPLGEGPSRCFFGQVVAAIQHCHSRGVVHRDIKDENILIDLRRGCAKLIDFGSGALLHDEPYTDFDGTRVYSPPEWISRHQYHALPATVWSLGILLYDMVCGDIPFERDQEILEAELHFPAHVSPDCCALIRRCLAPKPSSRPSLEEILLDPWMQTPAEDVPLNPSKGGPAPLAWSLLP
T1 sequence (P11309 whole entry): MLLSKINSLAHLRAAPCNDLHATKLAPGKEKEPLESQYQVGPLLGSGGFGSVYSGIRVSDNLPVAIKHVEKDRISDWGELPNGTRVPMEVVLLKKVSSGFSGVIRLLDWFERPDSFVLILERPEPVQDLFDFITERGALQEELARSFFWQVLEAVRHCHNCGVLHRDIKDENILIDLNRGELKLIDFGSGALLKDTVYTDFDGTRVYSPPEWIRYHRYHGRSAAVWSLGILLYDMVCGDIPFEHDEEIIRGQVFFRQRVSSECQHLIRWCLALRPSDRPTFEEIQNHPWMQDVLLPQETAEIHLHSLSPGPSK

| Structure (SMILES) | IC50 (Pim-1) [nM] | IC50 (Pim-2) [nM] | IC50 (Pim-3) [nM] | IC50 (PLK1) [nM] |
| --- | --- | --- | --- | --- |
| COc1ccccc1-c1c(F)cnc2[nH]c3cnc(-c4cccnc4)cc3c12 [Example 63, 3-fluoro-4-(2-methoxyphenyl)-6-(pyrid-3-yl)-9H-pyrrolo[2,3-b:5,4-c′]-dipyridine] | 1 to 100 | > 5000 | 100 to 1000 | 1 to 100 |
| CCCNc1cnc2[nH]c3cnc(-c4cccnc4)cc3c2c1 [Example 110, N-propyl-6-(pyrid-3-yl)-9H-pyrrolo[2,3-b:5,4-c′]dipyrid-3-amine] | 1 to 100 | 1000 to 5000 | 100 to 1000 | 1000 to 5000 |
| OC(COc1ccc(-c2c(F)cnc3[nH]c4cnc(-c5cccnc5)cc4c23)cc1)CN1CCOCC1 (centres unmarked) [Example 101, 1-{4-[3-fluoro-6-(pyrid-3-yl)-9H-pyrrolo[2,3-b:5,4-c′]dipyrid-4-yl]phenoxy}-3-(morpholin-4-yl)propan-2-ol] | 1 to 100 | 100 to 1000 | 1 to 100 | 1 to 100 |
| CS(=O)(=O)NCc1cccc(-c2c(F)cnc3[nH]c4cnc(-c5cccnc5)cc4c23)c1 [Example 62, N-{3-[3-fluoro-6-(pyrid-3-yl)-9H-pyrrolo[2,3-b:5,4-c′]-dipyrid-4-yl]benzyl}-methanesulfonamide] | 1 to 100 | 1000 to 5000 | 1 to 100 | 1 to 100 |
| CCN(CC)CCCN1CCN(c2c(F)cnc3[nH]c4cnc(-c5cccnc5)cc4c23)CC1 [Example 89, N,N-diethyl-3-{4-[3-fluoro-6-(pyrid-3-yl)-9H-pyrrolo[2,3-b:5,4-c′]dipyrid-4-yl]piperazin-1-yl}propan-1-amine] | 1 to 100 | 1000 to 5000 | 100 to 1000 | 1000 to 5000 |
| CCOc1cnc2[nH]c3cnc(-c4cccnc4)cc3c2c1 [Example 112, 3-ethoxy-6-(pyrid-3-yl)-9H-pyrrolo[2,3-b:5,4-c′]dipyridine] | 1 to 100 | 100 to 1000 | 1 to 100 | 100 to 1000 |
| CS(=O)(=O)NCc1ccc(-c2c(F)cnc3[nH]c4cnc(-c5cccnc5)cc4c23)cc1 [Example 66, N-{4-[3-fluoro-6-(pyrid-3-yl)-9H-pynolo[2,3-b:5,4-c′]-dipyrid-4-yl]benzyl}-methanesulfonamide] | 1 to 100 | 100 to 1000 | 1 to 100 | 1 to 100 |
| c1cncc(-c2cc3c(cn2)[nH]c2ncc(-c4ccc(N5CCOCC5)cc4)cc23)c1 [Example 121, 3-[4-(morpholin-4-yl)phenyl]-6-(pyrid-3-yl)-9H-pyrrolo[2,3-b:5,4-c′]-dipyridine] | 1 to 100 | 1000 to 5000 | 1 to 100 | 1000 to 5000 |
| c1cnc2[nH]c3cnc(-c4ccoc4)cc3c2c1 [Example 40, 6-furan-3-yl-9H-pyrrolo[2,3-b:5,4-c′]dipyridine] | 100 to 1000 | > 5000 | 1000 to 5000 | > 5000 |
| COc1cnc2[nH]c3cnc(-c4cnn(CC(=O)NCCN(C)C)c4)cc3c2c1 [Example 165, N-[2-(dimethylamino)ethyl]-2-[4-(3-methoxy-9H-pyrrolo[2,3-b:5,4-c′]dipyrid-6-yl)-1H-pyrazol-1-yl]acetamide] | 100 to 1000 | > 5000 | 100 to 1000 | > 5000 |
| O=S(=O)(CCl)Nc1ccc(-c2c(F)cnc3[nH]c4cnc(-c5cccnc5)cc4c23)cc1 [Example 45, 1-chloro-N-{4-[3-fluoro-6-(pyrid-3-yl)-9H-pyrrolo[2,3-b:5,4-c′]dipyrid-4-yl]-phenyl}-methanesulfonamide] | 1 to 100 | 1000 to 5000 | 1 to 100 | 1 to 100 |
| CCCN(CCC)CCCN1CCN(c2c(F)cnc3[nH]c4cnc(-c5cccnc5)cc4c23)CC1 [Example 88, 3-{4-[3-fluoro-6-(pyrid-3-yl)-9H-pyrrolo[2,3-b:5,4-c′]dipyrid-4-yl]piperazin-1-yl}-N,N-dipropylpropan-1-amine] | 1 to 100 | 100 to 1000 | 1 to 100 | 1000 to 5000 |
| c1cncc(-c2cc3c(cn2)[nH]c2ncc(-c4cn[nH]c4)cc23)c1 [Example 126, 3-(1H-pyrazol-4-yl)-6-(pyrid-3-yl)-9H-pyrrolo-[2,3-b:5,4-c′]-dipyridine] | 1 to 100 | > 5000 | 100 to 1000 | 1000 to 5000 |
| Oc1ccc(-c2c(F)cnc3[nH]c4cnc(-c5cccnc5)cc4c23)cc1 [Example 95, 4-[3-fluoro-6-(pyrid-3-yl)-9H-pyrrolo[2,3-b:5,4-c′]dipyrid-4-yl]phenol] | 1 to 100 | 100 to 1000 | 100 to 1000 | 1 to 100 |
| O=C(c1c(F)cnc2[nH]c3cnc(-c4cccnc4)cc3c12)N1CCOCC1 [Example 36, [3-fluoro-6-(pyrid-3-yl)-9H-pyrrolo[2,3-b:5,4-c′]-dipyrid-4-yl](morpholin-4-yl)methanone] | 100 to 1000 | > 5000 | 1000 to 5000 | 1000 to 5000 |

Next, values leading:

| IC50 (Pim-1) [nM] | IC50 (Pim-2) [nM] | IC50 (Pim-3) [nM] | IC50 (PLK1) [nM] | Structure (SMILES) |
| --- | --- | --- | --- | --- |
| 1 to 100 | 100 to 1000 | 1 to 100 | 100 to 1000 | CN1CCN(CCCn2cc(-c3cnc4[nH]c5cnc(-c6cccnc6)cc5c4c3)cn2)CC1 [Example 124, 3-{1-[3-(4-methyl-piperazin-1-yl)propyl]-1H-pyrazol-4-yl}-6-(pyrid-3-yl)-9H-pyrrolo[2,3-b:5,4-c′]-dipyridine] |
| 1 to 100 | 1000 to 5000 | 1 to 100 | 1000 to 5000 | c1cncc(-c2cc3c(cn2)[nH]c2ncc(-c4cnn(CCN5CCOCC5)c4)cc23)c1 [Example 115, 3-{1-[2-(morpholin-4-yl)ethyl]-1H-pyrazol-4-yl}-6-(pyrid-3-yl)-9H-pyrrolo[2,3-b:5,4-c′]dipyridine] |
| 1 to 100 | > 5000 | 1 to 100 | 1000 to 5000 | Cn1ccc(-c2cnc3[nH]c4cnc(-c5cccnc5)cc4c3c2)n1 [Example 116, 3-(1-methyl-1H-pyrazol-3-yl)-6-(pyrid-3-yl)-9H-pyrrolo[2,3-b:5,4-c′]dipyridine] |
| 1 to 100 | 100 to 1000 | 1 to 100 | 100 to 1000 | OCc1cccc(-c2cnc3[nH]c4cnc(-c5cccnc5)cc4c3c2)c1 [Example 118, {3-[6-(pyrid-3-yl)-9H-pyrrolo-[2,3-b:5,4-c′]-dipyrid-3-yl]-phenyl}methanol] |
| 1 to 100 | 1000 to 5000 | 1 to 100 | 1 to 100 | Fc1cnc2[nH]c3cnc(-c4cccnc4)cc3c2c1C1CC1 [Example 32, 4-cyclopropyl-3-fluoro-6-(pyrid-3-yl)-9H-pyrrolo[2,3-b:5,4-c′]dipyridine] |
| 100 to 1000 | 1000 to 5000 | 1000 to 5000 | > 5000 | CCCN(C)C(=O)c1cnc2[nH]c3cnc(-c4cccnc4)cc3c2c1 [Example 6, N-methyl-N-propyl-6-(pyrid-3-yl)-9H-pyrrolo[2,3-b:5,4-c′]dipyridine-3-carboxamide] |
| 1 to 100 | 1000 to 5000 | 100 to 1000 | 100 to 1000 | Fc1cnc2[nH]c3cnc(-c4cccnc4)cc3c2c1-c1ccc(OCCN2CCOCC2)cc1 [Example 99, 3-fluoro-4-{4-[2-(morpholin-4-yl)ethoxy]phenyl}-6-(pyrid-3-yl)-9H-pyrrolo[2,3-b:5,4-c′]dipyridine] |
| 1 to 100 | 1000 to 5000 | 1 to 100 | 100 to 1000 | COc1cc(-c2c(F)cnc3[nH]c4cnc(-c5cccnc5)cc4c23)ccc1NS(C)(=O)=O [Example 47, N-{-4-[3-fluoro-6-(pyrid-3-yl)-9H-pyrrolo[2,3-b:5,4-c′]dipyrid-4-yl]-2-methoxyphenyl}-methanesulfonamide] |
| 1 to 100 | 1000 to 5000 | 1 to 100 | 1000 to 5000 | COCCOc1cnc2[nH]c3cnc(-c4cccnc4)cc3c2c1 [Example 113, 3-(2-methoxyethoxy)-6-(pyrid-3-yl)-9H-pyrrolo[2,3-b:5,4-c′]dipyridine] |
| 1 to 100 | 100 to 1000 | 1 to 100 | 100 to 1000 | CN(c1ccc(-c2c(F)cnc3[nH]c4cnc(-c5cccnc5)cc4c23)cc1)S(C)(=O)=O [Example 48, N-{-4-[3-fluoro-6-(pyrid-3-yl)-9H-pyrrolo[2,3-b:5,4-c′]dipyrid-4-yl]-phenyl}-N-methyl-methanesulfonamide] |
| 1 to 100 | > 5000 | 1000 to 5000 | 100 to 1000 | O=C(c1ccccc1)c1c(F)cnc2[nH]c3cnc(-c4cccnc4)cc3c12 [Example 34, [3-fluoro-6-(pyrid-3-yl)-9H-pyrrolo[2,3-b:5,4-c′]-dipyrid-4-yl](phenyl)-methanone] |
